≈ marks a conversion by molar mass, not a printed value.
Experiments:
[1] = In-vitro release of paclitaxel by dialysis method; format: physicochemical; settings: 37° C., PBS with 0.1% Tween 80
Protocol: PX release studies (n=4) were completed at 37° C. by the dialysis method using PBS with 0.1% Tween 80 as release medium. Before release studies, the solubility of PX in release medium was measured. Briefly, extra amounts of paclitaxel were added into 2 mL of release medium until saturation was attained. After centrifuge, the concentration of PX in the supernatant was determined by HPLC as described above. For release studies, one milliliter (1 mL) of PX G78 NPs was purified with a Microcon Y-100 and re-suspended into 1 mL D.I. water. The concentration of PX in re-suspended PX G78 NPs was measured by HPLC as described above. Eight hundred microliters of purified PX G78 NPs, PX BTM NPs and reconstituted lyo BTM NPs were placed into a regenerated cellulose dialysis membrane (MWCO 8000 Da) submerged in 40 mL PBS with 0.1% Tween 80, respectively, and then shaken in a water bath at a speed of 150 rpm at 37° C. Free PX also was used as a control. At predetermined times, 200 μL aliquots were taken from outside of the dialysis membrane, and replaced with 200 μL fresh media. PX was measured by HPLC as described above. Mass balance was confirmed by measuring PX concentration inside the dialysis membranes after 72 h. In addition, the particle sizes of PX NPs inside the dialysis membranes were measured when release studies were terminated (at 72 h).

Solubility of paclitaxel = format: physicochemical; settings: PBS with 0.1% Tween 80 (release medium), aqueous with cosolvent or surfactant or cyclodextrin, thermodynamic from solid; PBS with 0.1% Tween 80, room temperature, mean ± SD, n = 3
[2] = reported in literature; cited from earlier work

For `CC(=O)O[C@H]1C(=O)[C@@]2(C)[C@H]([C@H](OC(=O)c3ccccc3)[C@]3(O)C[C@H](OC(=O)[C@H](O)[C@@H](NC(=O)c4ccccc4)c4ccccc4)C(C)=C1C3(C)C)[C@]1(OC(C)=O)CO[C@@H]1C[C@@H]2O` [Paclitaxel], the “time to complete release” value [1] is given as no more than 4 h, the solubility (Solubility of paclitaxel) is given as 10.8 ± 0.3 µg/mL (≈ 12.6 µM) and the aqueous solubility [2] is given as 0.7 to 30 µg/mL.

From patent US20110195030A1, “NANOPARTICLE COMPOSITIONS COMPRISING LIQUID OIL CORES” (The University of North Carolina at Chapel Hill, priority 2008, published 2011)
